The record followed here is article PMC4264242, “Androgen Receptor Antagonists and Anti-Prostate Cancer Activities of Some Newly Synthesized Substituted Fused Pyrazolo-, Triazolo- and Thiazolo-Pyrimidine Derivatives” (International Journal of Molecular Sciences, 2014).

In assay [1] the target is T1, human androgen receptor (Homo sapiens, UniProt P10275).
T1 construct: expressed in transfected cells
T1 sequence (P10275 1-920): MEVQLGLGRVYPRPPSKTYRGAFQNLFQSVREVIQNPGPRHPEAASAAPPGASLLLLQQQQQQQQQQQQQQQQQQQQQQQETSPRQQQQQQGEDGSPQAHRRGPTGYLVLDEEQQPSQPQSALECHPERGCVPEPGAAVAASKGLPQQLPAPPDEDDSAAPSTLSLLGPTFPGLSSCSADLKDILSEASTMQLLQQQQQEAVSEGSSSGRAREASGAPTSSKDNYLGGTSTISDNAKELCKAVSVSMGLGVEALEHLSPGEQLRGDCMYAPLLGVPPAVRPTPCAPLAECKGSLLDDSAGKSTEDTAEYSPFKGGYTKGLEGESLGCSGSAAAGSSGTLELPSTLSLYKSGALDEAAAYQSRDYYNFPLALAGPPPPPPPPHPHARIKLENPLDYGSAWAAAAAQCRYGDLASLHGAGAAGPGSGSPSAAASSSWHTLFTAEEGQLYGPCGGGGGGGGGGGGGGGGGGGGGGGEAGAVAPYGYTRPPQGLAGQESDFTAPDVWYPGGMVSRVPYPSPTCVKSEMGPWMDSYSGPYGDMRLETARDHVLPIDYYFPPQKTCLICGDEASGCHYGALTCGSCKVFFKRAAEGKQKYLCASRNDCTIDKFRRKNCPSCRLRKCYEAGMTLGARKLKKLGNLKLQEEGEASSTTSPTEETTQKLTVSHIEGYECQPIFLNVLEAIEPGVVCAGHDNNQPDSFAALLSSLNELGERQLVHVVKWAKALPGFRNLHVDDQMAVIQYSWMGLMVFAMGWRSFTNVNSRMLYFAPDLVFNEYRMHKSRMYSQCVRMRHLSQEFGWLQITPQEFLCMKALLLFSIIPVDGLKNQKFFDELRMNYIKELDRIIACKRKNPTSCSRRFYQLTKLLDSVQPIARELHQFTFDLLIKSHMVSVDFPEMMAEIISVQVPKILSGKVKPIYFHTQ
In words: In vitro androgen receptor antagonistic activity, DHT-induced MMTV-luciferase reporter assay in AR/CHO#3 cells. The assay is classed as cell-based. Particulars: 0.3 nM DHT. On the procedure: Chinese Hamster Ovary (CHO) Cells Stably Transfected with Human Androgen Receptor Gene and Mouse Mammary Tumor Virus (MMTV)-Luciferase Reporter Gene or SV40-Luciferase Gene: CHO cells were maintained in alpha-modified Eagle’s medium supplemented with 10% fetal bovine serum (FBS). The culture medium of neomycin-resistant clone cells was supplemented with 10% dextran-coated charcoal-stripped FBS (DCC-FBS) and […] of neomycin. The CHO cells were transfected at 40%–70% confluence in 10-cm petri dishes with a total of […] DNA (plasmide mammalian neow luciferase, (pMAMneoLUC)); Mouse mammary tumor virus (MMTV)-luciferase reporter plasmid and pSG5-hAR; human androgen receptor expression plasmid, or Simian vacuolating virus 40 (SV40-LUC); SV40-luciferase reporter plasmid containing neomycin resistant gene) by calcium phosphate mediated transfection. The stable transfected cells were selected in the culture medium supplemented with neomycin. The selected clone was designated as AR/CHO#3 (human AR gene and MMTV luciferase reporter gene integrated CHO cell) or SV/CHO#10 (SV-40-luciferase reporter gene integrated CHO cell), respectively.
The stable transfected AR/CHO#3 or SV/CHO#10 cells were plated onto 96-well luminoplates (Packard, Palo Alto, CA, USA) at a density of 2 × 10^4 cells/well, respectively.
Four to eight hours later, the medium was changed to a medium containing DMSO, 0.3 nM of DHT, or 0.3 nM of DHT, and the tested compound. At the end of incubation, the medium was removed and the cells were lysed with […] of lysis buffer (25 mM Tris–HCl (pH 7.8), 2 mM dithiothreitol, 2 mM 1,2-cyclo-hexanediamine-tetraacetic acid, 10% glycerol and 1% Triton X-100). Luciferase substrate (20 mM Tris–HCl (pH 7.8), 1.07 mM magnesium carbonate basic (MgCO3)4Mg(OH)2·5H2O, 2.67 mM MgSO4·7H2O, 0.1 mM ethylenediaminetetraacetic acid (EDTA), 33.3 mM dithiothreitol, 0.27 mM CoA, 0.47 mM luciferin, 0.53 mM ATP) was added, and luciferase activity was measured with a ML3000 luminometer (Dynatech Laboratories, El Paso, TX, UAS). AR antagonistic activities were calculated by the formula below: AR antagonistic activity (%) = 100 (I − X) / (I − B) (1) I: (luciferase activity of AR/CHO#3)/(luciferase activity of SV/CHO#10) in the presence of 0.3 nM of DHT, B: (luciferase activity of AR/CHO#3)/(luciferase activity of SV/CHO#10) in the presence of DMSO, X: (luciferase activity of AR/CHO#3)/(luciferase activity of SV/CHO#10) in the presence of 0.3 nM of DHT and the tested compound.
The concentration of compounds showing 50% AR antagonistic activity, or IC50 values, was obtained by nonlinear analysis using a statistical analysis system (SAS).

The target of assay [2] is T2, wild type AR in PC-3 cells (Homo sapiens, UniProt P10275).
T2 construct: expressed in transfected cells; host or cells: PC-3 cells (lack endogenous functional AR), transient transfection with SuperFect
T2 sequence (P10275 1-920): T1 sequence (P10275 1-920)
In words: Anti-prostate cancer screening, anti-androgenic bioassay (wild type AR transactivation) in PC-3 cells. The assay is classed as cell-based. Particulars: PC-3 cells transfected with wild type AR, 1 nM DHT, 24 h. On the procedure: Human prostate cancer LNCaP and PC-3 cells were maintained in RPMI medium and Dulbecco’s minimum essential medium (DMEM), respectively. Both media were supplemented with penicillin (25 units/mL), streptomycin ([…]), and 10% fetal calf serum. For the androgen receptor transactivation assay, an androgen-dependent reporter gene transcription test was employed as the primary screening for potential anti-androgen identification. This assay was first performed in LNCaP cells, which express a clinically relevant mutant AR. […] Wild type AR transactivation assay was performed in PC-3 host cells, which lack an endogenous, functional AR. The method and conditions of cell and gene transfection have been described previously. In brief, cells were plated in 24-well tissue culture dishes for 24 (PC-3 cells) or 48 (LNCaP cells) h prior to transfection. Subsequently, LNCaP cells were transfected with a reporter gene, MMTV-luciferase, which contains a MMTV-long terminal repeat (LTR) promoter and an androgen receptor binding element, and Renilla Luciferase Control Reporter Vectors 40 (PRL-SV40), which served as an internal control for transfection efficiency. PC-3 cells were transfected with a wild type AR expression plasmid, plasmide gene-5 androgen recptor (pSG5AR), in addition to the above-mentioned MMTV-luciferase reporter gene and PRL-SV40 internal control. SuperFect (Qiagen, Chatsworth, CA, USA) was employed as the transfection reagent following the manufacturer’s recommendations. At the end of a 5-h transfection, the medium was changed to DMEM or RPMI supplemented with 10% charcoal dextran-stripped, i.e., androgen-depleted, serum. After 24 h, the cells were treated with 1 nM of DHT and/or test compounds at the designated concentrations.
After 24 h the cells were harvested for luciferase activity assay using the Dual Luciferase Assay System (Promega, Madison, WI, USA.). The derived data was expressed as relative luciferase activity normalized to the internal luciferase control.

Setting [3] is: AR/CHO#3 cells normalised to SV/CHO#10.

SMILES strings stand for the structures. “Also recorded” adds a separate entry of the source.

With `Nc1nc(=S)[nH]c2c1cnn2-c1nc2c(ccc3ccccc32)s1` [Compound 5, 2-[6-Amino-3H-4-thiopyrimidino[4,5-c]pyrazol-2-yl]naphthalino[1,2-d]thiazole], the IC50 in assay [1] (setting [3]) came out at 41 nM; in assay [2], 190 nM.

Take `N=c1c2cnn(-c3nc4c(ccc5ccccc54)s3)c2ncn1NC(=O)c1ccccc1` [Compound 11]: the IC50 in assay [1] (setting [3]) is 39 nM; in assay [2], 180 nM.

As for `CCOC1SCC2NC(=O)c3cnn(-c4nc5c(ccc6ccccc65)s4)c3N21` (stereo not shown) [Compound 13, 2-[3-Ethoxy-5-dihydro-6H-7-oxo-[1,3]thiazolo[3,4-b]pyrimidino[4,5-c]pyrazol-2-yl]naphthalino[1,2-d]thiazole], the results for the IC50 in assay [1] (setting [3]) and in assay [2] were 29 nM and 146 nM, respectively.

Regarding `NNc1nc2c(ccc3ccccc32)s1` [Compound 1, 1-(naphtho[1,2-d]thiazol-2-yl)hydrazine], the “IC50, in vitro androgen receptor antagonistic activity” value in assay [1] (setting [3]) is “Inactive”; in assay [1] (AR/CHO#3 cells normalised to SV/CHO#10, listed as compound 1) it was “devoid from any activities; also recorded: devoid of any activity”. Besides, in assay [2], the “IC50 PC-3, anti-prostate cancer activity” value is listed as “devoid from any activities; also recorded: Inactive”.

As for `Nc1n[nH]c2c1cnn2-c1nc2c(ccc3ccccc32)s1` [Compound 4], the figures for the IC50 in assay [1] (setting [3]) and in assay [2] were 34 nM and 179 nM, respectively.

Turning to `CCOC1SCC(=O)N1c1c(C#N)cnn1-c1nc2c(ccc3ccccc32)s1` (stereo not shown) [Compound 12, 2-[3-(2-Ethoxy-4-oxo-5-dihydro-1,3-thiazol-3-yl)-4-cyanopyrazol-2-yl]-naphthalino[1,2-d]thiazole], the IC50 in assay [1] (setting [3]) was determined as 91 nM; in assay [2], 289 nM.

For the compound `N=c1sc(=S)[nH]c2c1cnn2-c1nc2c(ccc3ccccc32)s1` [Compound 6, 2-[6-Imino-3H-4-thiothiazino[4,5-c]pyrazol-2-yl]naphthalino[1,2-d]thiazole], the results for the IC50 in assay [1] (setting [3]) and in assay [2] were 44 nM and 201 nM, respectively.

With `Nc1ncnc2c1cnn2-c1nc2c(ccc3ccccc32)s1` [Compound 3], the IC50 in assay [1] (setting [3]) came to 37 nM; in assay [2], 177 nM.

With `CCO/C=N\c1c(C#N)cnn1-c1nc2c(ccc3ccccc32)s1` [Compound 8, 2-[3-Ethylimidoformat-4-cyanopyrazol-2-yl]naphthalino[1,2-d]thiazole], the IC50 in assay [1] (setting [3]) stood at 77 nM; in assay [2], 279 nM.

Turning to `N#Cc1cnn(-c2nc3c(ccc4ccccc43)s2)c1/N=C\NN` [Compound 9, 2-[3-Imidoformic hydrazido-4-cyanopyrazol-2-yl]naphthalino[1,2-d]thiazole], the figures for the IC50 in assay [1] (setting [3]) and in assay [2] were 75 nM and 269 nM, respectively.

Take `N#Cc1cnn(-c2nc3c(ccc4ccccc43)s2)c1N` [Compound 2, 2-[3-Amino-4-cyanopyrazol-2-yl]naphthalino[1,2-d]thiazole]: the IC50 stood at 31 nM in assay [1] (setting [3]) and 157 nM in assay [2].

For the compound `Cc1nc2c3cnn(-c4nc5c(ccc6ccccc65)s4)c3ncn2n1` [Compound 10, 2-[6-Methyl[1,2,4]triazolo[2,3-c]pyrimidino[6,5-c]pyrazol-2-yl]naphthalino[1,2-d]thiazole], the values for the IC50 in assay [1] (setting [3]) and in assay [2] were 23 nM and 109 nM, respectively.

One may read the IC50 as the concentration at which inhibition is half-maximal. A lower IC50 goes with inhibition by little substance.
